Experiment: gradient 5% acetonitrile 3 min, to 50% in 2 min, to 85% in 15 min, held 3 min, 100 µL/min
Conditions: column: Zorbax Extend-C18 2.1 x 50 mm; eluents: water / acetonitrile, 0.1% formic acid
Method in brief: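 Retention time was recorded from adduct peaks, which were picked computationally and each inspected manually. Pure standards ran in mixtures of ~100 molecules on HPLC coupled to a quadrupole time-of-flight mass spectrometer, in positive and negative ionization mode, through a Zorbax Extend-C18 column (2.1 × 50 mm, 1.8 μm) at 100 μL/min. Eluents were water and acetonitrile, each with 0.1% formic acid.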

Compound | RP-LC retention time
COc1ccccc1CNC1=NCCNC12CCN(S(=O)(=O)c1ccc(Cl)cc1)CC2 | 750 s
CCOc1cccc2sc(N(CCN(C)C)C(=O)c3ccco3)nc12 | 710 s
Cc1ccc(N2CC(c3noc(-c4ccc5ccccc5n4)n3)CC2=O)cc1 (centres undefined) | 899 s
O=C(CC1CCN(C(=O)c2cc3ccccc3[nH]2)CC1)NCCN1CCCC1 | 559 s
O=C(C1CCCC1)N1CCCCC1c1nc(C2CC2)n[nH]1 (centres undefined) | 676 s
Cc1ccc(CN2C(=O)NC3(CCN(C(=O)c4cccs4)CC3)C2=O)cc1 | 820 s
O=C(Cc1cccc(F)c1)N1CCc2cc(-c3ccno3)ccc21 | 948 s
CCc1nnc(NC(=O)CSc2nnc(NC(=O)NC(C)(C)C)s2)s1 | 672 s
COc1ccc(C(=O)Nc2nnc(SCc3nnc(-c4ccccc4)o3)s2)cc1OC | 830 s
COc1ccc(C(=O)N2CCc3cn(C)c4cccc(c34)C2)cc1 | 920 s
CCCCS(=O)(=O)N1CCCC(Cn2c(C3CC3)nc3cccnc32)C1 (centres undefined) | 698 s
COc1ccc(-c2cc(N3CCC(NC(=O)c4cccc(C#N)c4)C3)n[nH]2)cc1 (centres undefined) | 692 s
CCN1C(=O)c2ccccc2S(=O)c2ccc(C(=O)N3CCN(c4ccccn4)CC3)cc21 (centres undefined) | 595 s
CCCNc1cc(N2CCC(CCC(=O)NC3CC3)CC2)ncn1 | 588 s
Cc1cc(C)n(CC2CCN(C(=O)c3cc4ccccc4[nH]3)CC2)n1 | 717 s
CCN(CC)CCNC(=O)CSc1cc(=O)n(C)c2cc(Cl)ccc12 | 622 s
CSc1ccc(CNC(=O)C2CCCN(C(=O)c3[nH]c(C)c(C(=O)OC(C)C)c3C)C2)cc1 (centres undefined) | 929 s
Cc1nn(C)c(C)c1S(=O)(=O)N1CCCC(Cc2nncn2-c2ccccc2)C1 (centres undefined) | 604 s
CNC(=O)C1=CCN(C(=O)c2cc(C)cc(C)c2)CC1 | 705 s
CN1C(=O)C(c2c(-c3ccccc3)[nH]c3[nH]c(=O)[nH]c(=O)c23)c2ccccc21 (centres undefined) | 668 s
Cc1ccc(-c2ccc(-n3nc(C)c(S(=O)(=O)N4CCN(C)CC4)c3C)nn2)cc1C | 731 s
Cn1nc(C(=O)N2CCCC(C(=O)NC3CC3)C2)c2c1CCN(C(=O)c1ccc(F)cc1)C2 (centres undefined) | 633 s
COc1cccc(Cn2c(C)c(CNCc3ccccn3)c(C(=O)O)c2C)c1 | 676 s

Compound | RP-LC retention time
Cc1nc(CC(=O)Nc2ccc(Cl)c(F)c2)sc1C(=O)NC1CC1 | 750 s
Cn1nc(C(=O)Nc2ccccc2)c2c1CCN(C(=O)CCC(=O)NC1CC1)C2 | 678 s
O=C(CSc1ncnc2c1cnn2-c1ccc(F)cc1)Nc1nc2ccccc2s1 | 1020 s
CCCc1nnsc1C(=O)NCC1CCN(C(=O)Oc2ccccc2)CC1 | 863 s
O=C(NCC1CCOCC1)Nc1cccc(F)c1 | 698 s
OC[C@H]1O[C@@H](c2ccc(Cl)c(Cc3ccc(O[C@H]4CCOC4)cc3)c2)[C@H](O)[C@@H](O)[C@@H]1O | 736 s
Cc1cc(N2CCC(NC(=O)Nc3ccc(Cl)cc3F)C2=O)ccc1F (centres undefined) | 923 s
COc1cccc(NC(=O)Cn2nc3cc(C)nc(-c4ccccc4)n3c2=O)c1 | 803 s
Cc1cc(F)ccc1N1C(=O)CN(S(=O)(=O)c2ccccc2)CC1(C)C(=O)NC1CCCC1 (centres undefined) | 928 s
COc1ccc(C2(C(=O)N3CCC(c4nc(-c5cccn5C)no4)C3)CC2)cc1 (centres undefined) | 910 s
CC1=NS(=O)(=O)N(Cc2ccccc2)C=C1C(=O)OCc1ccc(C)cc1C | 1220 s
Cc1cc(OCC(=O)Nc2ccnn2Cc2ccco2)cc(C)c1Cl | 953 s
COc1ccc(S(=O)(=O)NC2CCN(C(=O)CCc3c[nH]c4ccccc34)CC2)cc1 | 788 s
COCc1noc([C@@H]2CC(F)(F)CN2C(=O)c2conc2C)n1 | 679 s
Cc1cccc(Sc2nccnc2N2CCCC(C(=O)NCc3ccc4c(c3)OCO4)C2)c1 (centres undefined) | 1030 s
O=C(CN1C(=O)CCC1=O)N1CC(c2nc(-c3cccc(C(F)(F)F)c3)no2)C1 | 754 s
Cc1ccsc1C(=O)N1CCN(c2cc(-c3ccc(Cl)cc3)[nH]n2)CC1 | 749 s
Cc1cc(NC(=O)c2cccc(N3C(=O)CCC3=O)c2)on1 | 622 s
COc1cccc(-c2nc(Cn3c(=O)c4c(C)cc(C)nc4n(C)c3=O)c(C)o2)c1OC | 1130 s
CCn1c(C)c(C(=O)C(C)N(CCC(C)C)C(=O)c2ccccc2Cl)c(C)c1C(=O)OC (centres undefined) | 1210 s
CN(Cc1ccco1)C(=O)c1ccc2ncnc(N3CCCCC3)c2c1 | 632 s
CCc1ccc(CNC(=O)C2CCN(c3cncnc3N3CCN(C)CC3)CC2)cc1 | 588 s
CCn1cc(S(=O)(=O)NCc2ccccc2)c2cccnc21 | 804 s

Compound | RP-LC retention time
CC(C)=C(c1ccc(Cl)cc1)c1c(N)ncnc1N | 705 s
CCN1C(=O)c2cc(C(=O)NCc3ccccc3F)nn2CC1(C)C(=O)NC1CCCC1 (centres undefined) | 659 s
O=C(NCc1ccc2[nH]c3c(c2c1)CCCC3)C1CC1 | 735 s
CCOc1ccc(NC(=O)c2c(NC(C)=O)sc3c2CCCC3)cc1 | 1090 s
COc1cc(F)ccc1-c1ccnc2nc(CC(C)C)nn12 | 862 s
CC(c1ccccc1)n1cnc2c(oc3ccccc32)c1=O (centres undefined) | 859 s
CCC(=O)N1CCc2cc(C(=O)N3CCN(c4ncccn4)CC3)ccc21 | 697 s
COc1cccc(-n2c(=O)c(C(=O)Nc3ccccc3)c(O)c3cccnc32)c1 | 1220 s
Cc1oc2ncn(CC(C)C)c(=O)c2c1C(=O)N1CCN(c2ccccn2)CC1 | 568 s
COc1ccccc1NC(=O)Oc1cccc(OC(=O)c2ccccc2)c1 | 653 s
Cc1ccc(CNC(=O)C2(C)CCCN(C(=O)NCCC(C)C)C2)cc1 (centres undefined) | 910 s
CCCNC(=O)C1CCN(c2ccc(SCC(=O)N(C)c3ccccc3)nn2)CC1 | 627 s
CCc1nnc(-c2cn(CC(=O)NCc3ccc(C)o3)c3ccccc23)o1 | 740 s
O=C(CN1C(=O)C2CCCCN2c2ccc(C(=O)N3CCCCC3)cc21)N1CCc2ccccc2C1 (centres undefined) | 921 s
Cc1cc(Nc2ccc(NC(=O)c3cnccn3)cc2)nc(N2CCCCC2)n1 | 588 s
CC(C)CCN1CCC(N2CCN(S(=O)(=O)c3ccc(F)cc3)CC2)C1=O (centres undefined) | 662 s
Cc1ccc(CNC(=O)C2(C)CN(S(=O)(=O)c3ccccc3)CC(=O)N2CCC(C)C)cc1 (centres undefined) | 1030 s
COc1ccc(-c2cn3c(CC(=O)NCCc4cccs4)csc3n2)cc1OC | 692 s
O=C(Cn1c(C(F)(F)F)nc2cc3c(cc21)OCCO3)NCc1ccc(Cl)cc1 | 885 s
Cc1cc(C(=O)NCC23CCCC=C2NC(=O)CC3)n(C)n1 (centres undefined) | 636 s
CCN(C(=O)CCCC(=O)OC)c1nc(-c2ccc(C)cc2)cs1 | 1180 s
CN1C(=O)c2cc(S(=O)(=O)NC3CCCCCC3)ccc2Oc2cccnc21 | 1000 s
Cc1ncoc1C(=O)N1CCC(c2noc(-c3cccnc3)n2)C1 (centres undefined) | 640 s

Compound | RP-LC retention time
CCc1nn2c(CNC(=O)C3CCN(C(C)=O)CC3)c(-c3ccccc3)nc2s1 | 664 s
CCN(C(=O)CN1C(=O)NC2(CCC(C)CC2)C1=O)c1cccc(C)c1 (centres undefined) | 666 s
Cc1cccc(NC(=O)Cn2ncc3c(N4CCN(c5ccccn5)CC4)ncnc32)c1C | 609 s
CCCS(=O)(=O)N1CCCC(Cn2c(C3CC3)nc3cccnc32)C1 (centres undefined) | 658 s
C=CCNC(=O)c1c2c(nc3ccc(C)cc13)CCC2 | 606 s
CCN1C(=O)c2c(C(=O)NCc3cccc(F)c3)ncn2CC1(C)C(=O)NC1CCCC1 (centres undefined) | 762 s
O=C(COc1ccccc1)Nc1nnc(SCC(=O)N2CCCc3ccccc32)s1 | 859 s
COc1cc(C2CC(=O)c3c(C)nc(N4CCN(c5ccccn5)CC4)nc3C2)cc(OC)c1OC (centres undefined) | 678 s
Cn1ncc2c3ccccc3n(CCCC(=O)NCc3cccnc3)c2c1=O | 612 s
CCC(C)NC(=O)C1CCN(c2cnc(N3CCN(CC)CC3)nc2)CC1 (centres undefined) | 575 s
COc1ccc(NC(=O)CN2CCc3c(c(=O)c4cc(C)ccc4n3C)C2)cc1Cl | 638 s
Cc1ccc2cc(CCC(=O)NCCc3ccccn3)c(=O)[nH]c2c1 | 596 s
Cc1ccc(S(=O)(=O)N2CCC3(CC2)CC(C)(O)CCO3)cc1F (centres undefined) | 846 s
CCOc1nc2ccccc2nc1N1CCCC(C(=O)NC2CCCCCC2)C1 (centres undefined) | 1250 s
CCCN1C(=O)COc2ccc(-c3noc(-c4cccc(NC(C)=O)c4C)n3)cc21 | 872 s
Cc1ccc(Nc2nc(C(=O)NC3CCS(=O)(=O)C3)nc3ccccc23)cc1 (centres undefined) | 685 s
CCc1ccccc1NC(=O)N1CCC(c2cc(N)on2)CC1 | 751 s
NC(=O)C1CCN(C(=O)Cn2c(=O)n(C3CCCCC3)c(=O)c3cc(Br)ccc32)CC1 | 771 s
O=C(C1CCC1)N1CCCCCC1CN1CCOCC1 (centres undefined) | 595 s
COc1cccc2cc(C(=O)Nc3nc(-c4ccccc4)cs3)c(=O)oc12 | 1180 s
